According to patent publication US20240309015A1, “Methods for the Treatment of Fibrotic Disease” (SHY Therapeutics, LLC, priority 2021, published 2024):
pIC50: −log10 of the molar value.

Experiments:
Smad2/3 phosphorylation = experiment: Phospho-Smad2/3 Inhibition Assay in PANC-1; type: cell-based; details: Homo sapiens, western blot
Outline: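 Serum-starved cells (0.5% FBS overnight) pretreated 3 h at 37 °C with compound at 10 μM or serial dilutions for IC50, in 0.3% DMSO. TGF-b1 10 ng/ml stimulation: 1 h for Panc-1 (human), 20 min for C2C12 (mouse). Phospho-Smad2 (Ser465/467) and phospho-Smad3 (Ser423/425) measured by western blot of lysates.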

KRas wild type = experiment: Ras GTP Binding Domain Inhibition Assay, KRas wild type; details: at 20 μM
Outline: (§1)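 Read-out is fluorescence of Cy3- or Cy5-GTP (100 nM, 45 min, room temperature) still bound after three washes. Beforehand, His-tagged protein on nickel wells was exposed to compound (20 μM, or a dilution series for IC50) for 3 h, with or without Sos in the last hour.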

KRas G12C mutant = experiment: Ras GTP Binding Domain Inhibition Assay, KRas G12C mutant; details: at 20 μM
Outline: as §1

MAPK p38 = MAPK p38 Activation Assay in PANC-1; type: cell-based, human; set-up: key: Y = yes; N = No; details: at 10 μM
Procedure: Cell lines: Human tumor-derived pancreatic cancer cell line Panc-1 and mouse muscle myoblast C2C12 were purchased from American Type Culture Collection and grown in complete DMEM-High Glucose, supplemented with penicillin (100 U/mL), streptomycin (100 μg/mL), and 10% heat-inactivated FBS at 37° C. in a humidified incubator with 5% C02.
Method: Cells were plated at 350000 cells/well density in a 12-well plate, allowed 3 hours to adhere to the plate, then starved in the appropriate medium in the presence of 0.5% FBS overnight. The small molecules to be tested were added to the cells in the final concentration of 10 μM in the presence of 0.3% DMSO for 3 hours incubation at 37° C. For IC50 value determination, serial dilutions of compounds were added to cells under the same conditions. […] Protein concentration was assessed by BCA protein assay (Thermo Scientific). Phosphorylation level of MAPK p38 was determined by western blot.
Western blot protocol: Equal amounts of protein (15-50 μg) were separated by SDS-PAGE and transferred to nitrocellulose membranes (Invitrogen by Thermo Fisher Scientific). […] Membranes were blocked with 10% milk and phosphorylation levels of Smad2/Smad3 were assessed by incubating overnight at 4° C. with the following antibody: Phospho-p38 MAPK (Thr180/Tyr182), from Cell Signaling Technology. […]

- pIC50 (Smad2/3 phosphorylation; PANC-1, TGF-b1 stimulated): 5.00 to 5.30
- KRas wild type + SOS: % inh. (KRas wild type; with SOS): D (D = 76-100% inhibition)
- KRas wild type: % inh. (KRas wild type; without SOS): B (B = 26-45% inhibition)
- KRas G12C mutant + SOS: % inh. (KRas G12C mutant; with SOS): D (D = 76-100% inhibition)
- KRas G12C mutant: % inh. (KRas G12C mutant; without SOS): B (B = 26-45% inhibition)
Compound: CO[C@H]1CC[C@@H](Nc2nc(-c3nccn3C)nc3sc(-c4ccn(C)n4)c(-c4ccccc4)c23)C1 (racemic) [Compound 5, rac-N-((1R,3S)-3-Methoxycyclopentyl)-2-(1-methyl-1H-imidazol-2-yl)-6-(1-methyl-1H-pyrazol-3-yl)-5-phenylthieno[2,3-d]pyrimidin-4-amine]
- inhibition at 10 µM (Smad2/3 phosphorylation; 10 μM compound, 3 h, TGF-b1 stimulated PANC-1, read-out: % inh of Smad2/3 phosphorylation in PANC-1): 76 to 100%
- Activation of MAPK p38 in PANC-1 (MAPK p38): Y
